Data set [1] in a line: Internal dose of PFHxS from rat model Caverage,rat at NOAEL with uncertainty factors. Set-up: species or system human. As to conditions: versus internal dose 412.7 ng/mL. How it is done: First, to obtain the internal dose of PFHxS, the UFA was applied to the rat model by finding the Caverage,rat resulting from repeated exposure to NOAEL.
As a result, BEPOD was calculated as 4127.4 ng/mL.

A short description of data set [2]: PFHxS standard exposure calculation and risk assessment using human PBPK core model. Conditions: standard exposure 9.7 μg/kg/day. An excerpt: The final parameters were used to calculate the correlation between the mean blood concentration at steady state and the external dose during repeated exposure to PFHxS. Specifically, using a human PBPK model constructed using human physiological parameters and substance-intrinsic parameters, a dose range was simulated and set, and the correlations described above were derived using regression analysis.
Next, the interspecies uncertainty factor (UFA) was applied to calculate the steady-state Caverage,human in humans. Specifically, the PFHxS PODhuman in the human body was calculated by using the correlation equation between the average blood concentration (Caverage) and the external dose during repeated exposure to PFHxS from which Caverage,human was derived. Next, the intraspecies uncertainty factor (UFH) was applied to the PODhuman to finalize the PFHxS standard exposure in the human body.
The PFHxS reference standard dose for external dose to PFHxS was used to derive the margin of safety (MoS) of PFHxS for men and women. Specifically, the blood PFHxS concentrations of men in Siheung (2.29 ng/mL) and women in Daegu (1.75 ng/mL), which are highly exposed to PFHxS, were substituted into the above correlation equation between the average blood concentration (Caverage) and the external dose to calculate the external dose.

The conditions of data set [3]: cited from earlier work.

Data on one molecule can be found in patent US20240006031A1, “PHYSIOLOGICALLY-BASED PHARM[…] MODEL” (CHA UNIVERSITY INDUSTRY-ACADEMIC COOPERATION FOUNDATION, priority 2020, published 2024).

Like-named read-outs stand apart in the source and are kept apart here.

Take `O=S(=O)(O)C(F)(F)C(F)(F)C(F)(F)C(F)(F)C(F)(F)C(F)(F)F` [PFHxS]: the “actual blood levels in Koreans compared with calculated internal dose” value in data set [1] is recorded as “in the safe zone”. For the same molecule, the “margin of safety (MoS)” value is given as 180.3 in data set [2] (men (Siheung, blood PFHxS 2.29 ng/mL)) and 235.9 in data set [2] (women (Daegu, blood PFHxS 1.75 ng/mL)). Further, the “blood PFHxS concentration” value in data set [3] (men in Daegu) is on record as 2.19 ng/mL; in data set [3] (men in Siheung), 2.29 ng/mL; in data set [3] (women in Daegu) it was 1.75 ng/mL; in data set [3] (women in Siheung), 1.35 ng/mL.
